Experimental data taken from PMC11234460, “In Silico Discovery of Stapled Peptide Inhibitor Targeting the Nur77‐PPARγ Interaction and Its Anti‐Breast‐Cancer Efficacy” (Advanced Science, 2024).
Where a SMILES comes first, the peptide text is derived from it. Bridges are numbered along the chain shown (N, C = ends). [ ]: non-standard residue; d: D form. S5 = C=CCCC[C@](C)(N)C(=O)O

Experiments:
MCF7 cells [1] = experiment: Western blot of Nur77, CD36 and FABP4; type: cell-based, human
Protocol: MCF7 and MDA‐MB‐231 cells were treated with various concentrations of peptide. The cells were then collected and lysed in NP40 lysis buffer. Total protein was quantified using a BCA assay kit (Beyotime, P0010S). The proteins were separated by SDS‐PAGE and transferred onto a PVDF membrane. The PVDF membrane was blocked in TBST containing 5% non‐fat milk, and then incubated with primary antibodies overnight at 4 °C. Subsequently, membranes were incubated with horseradish peroxidase‐conjugated antirabbit or antimouse IgG secondary antibody for 1 h at room temperature. The membranes were analyzed by a Tanon‐5200 Multi Gel Imaging Analysis System (Tanon) and quantified by ImageJ software.

Solubility test in PBS = type: physicochemical; conditions: PBS buffer, aqueous buffer, 1 mg in 50 µL, gradient diluted from 20 to 0.078125 mg mL^−1, OD at 600 nm (turbidity), plate reader
Protocol: Mix 1 mg ST‐CY14 or Csn‐B (Shanghai Sunny Biotech) in 50 µL PBS buffer, and then transfer 40 µL the suspension to a 96‐well plate. The suspension was gradient diluted from 20 to 0. 07 8125 mg mL^−1. OD values were measured at 600 nm on a Cytation 5 (Biotek, USA) plate reader. PBS was set as a blank control.

MDA-MB-231 cells [2] = experiment: Cell viability assay (CCK-8); type: cell-based; conditions: MDA-MB-231, 5 × 10^−6 M, 24 h
Protocol: (§1) MCF7, MDA‐MB‐231, and MDA‐BoM‐1833 cells (5000 cells/well) were seeded in 96‐well plates and cultured overnight at 37°C and 5% CO2. The cells were then treated with fresh basic medium containing various concentrations (1/2/5/10/20 × 10^−6 M) of compounds. After 24 h of incubation, the cells were incubated with a basic medium containing 10% Cell Counting Kit‐8 (Dojindo, CK‐04) for 2 h. Cell viability was evaluated by measuring the absorbance at 450 nm. The formula used was [(As‐Ab)/(Ac‐Ab)] × 100%, where as represents the absorbance of the drug‐treated group, Ac represents the absorbance of the control group treated with medium, and Ab represents the absorbance of the blank control containing only medium.

Nur77-LBD = biological target: T1, Nur77-LBD (Homo sapiens, UniProt P22736); experiment: Surface plasmon resonance (SPR), Biacore T200; type: binding; conditions: read-out: ka (SPR)
T1 construct: The LBD fragment of human Nur77 (residues 351–598), tagged with an N‐terminal His6‐tag; His6 (N); made in house; host or cells: Escherichia coli BL21(DE3)
Protocol: ST‐CY14 with Nur77‐LBD was detected by SPR using the Biacore T200 system at 25 °C. Recombinant human Nur77‐LBD protein was immobilized on an activated carboxymethylated 5 sensor chip (GE Healthcare) using the amine coupling method. Gradient concentrations of […] were injected at a flow rate of 30 µL min^−1 in a running buffer (1% DMSO in PBS). The results were analyzed with Biacore evaluation software (T200 version 2.0). The data were fitted to the 1:1 Langmuir binding model, and kinetic parameters were derived.

MDA-MB-231 cells [3] = experiment: Scratch (wound-healing) assay; type: cell-based; conditions: MDA-MB-231, 12 h
Protocol: MCF7 and MDA‐MB‐231 cells were seeded in 6‐well plates and cultured overnight. Once the cell density reached 90%, a line was scratched along the center of the 6‐well plate and images were taken randomly in the scratch domain under a microscope. The cells in each well were then treated with peptides of varying concentrations for 12 h, after which images were taken again in the scratch domain. The formula used to calculate the scratch healing rate was as follows: Scratch healing rate (%) = [(Scratch area at 0 h – Scratch area at 12 h) […] Scratch area at 0 h] × 100%.

MCF7 cells [4] = experiment: qPCR of CD36 and FABP4; type: cell-based, human; conditions: n = 3
MDA-BoM-1833 cells = experiment: Cell viability assay (CCK-8); type: cell-based; conditions: MDA-BoM-1833, 5 × 10^−6 M, 24 h
Protocol: as §1

Nur77-PPARγ interaction = biological target: T2, Nur77-PPARγ interaction (Homo sapiens, UniProt P22736); experiment: Co-immunoprecipitation (IP: Nur77; IB: PPARγ, Trim13) in HEK293T cells; type: cell-based; conditions: 1 × 10^−5 M, 24 h
T2 construct: expressed in transfected cells; host or cells: HEK293T
Protocol: HEK293T cells were seeded overnight in 10 cm culture dishes and transfected with the Nur77 and PPARγ plasmids for 48 h. After transfection, T‐CY14 and ST‐CY14 were incubated with the cells for 24 h. The cells were then collected and lysed in 500 µL precooled NP40 lysis buffer (Beyotime, P0013F), which contained 20x […] and 50x phosphatase inhibitor. All the samples were prepared at a concentration of 1 mg mL^−1, and 0.5 mg of the sample was subsequently incubated overnight at 4 °C with 2 µg of Nur77 antibody (Proteintech, 12235‐1‐AP). The samples were then incubated with Protein A/G PLUS‐Agarose (Santa Cruz, sc‐2003) for 4 h at 4 °C. The beads were collected through centrifugation and washed five times with NP40 lysis buffer. Finally, 5x loading buffer was added to the buffer containing the beads for Western blot analysis of PPARγ antibody (Proteintech, 16643‐1‐AP), Trim13 antibody (Abcam, ab234847), and β‐actin antibody (epizyme, LF201).

[5] = CD spectroscopy, α-helicity; type: physicochemical; conditions: 5 × 10^−5 M peptide in H2O, 25 °C, 1 mm cuvette, 185-260 nm
Protocol: The detection wavelengths of the peptides were 214 and 254 nm. Solvent A: H2O (containing 0.1% TFA) and solvent B: acetonitrile (containing 0.1% TFA) were used as solvents in linear gradient mixtures. Peptide purification was performed by semi‐preparative HPLC using an XBridge Prep C18 column (19 × 250 mm, 10 µm particle size, flow rate of 20 mL min^−1). Solvents A and B were the same as those in the peptide analysis procedure. The peptides were dissolved in H2O to a final concentration of 5 × 10^−5 M. The purified peptide was detected using a mass spectrometer (6410 Triple Quad LC/MS, Agilent, USA) (Table S2, Supporting Information). The solvent was 80% methanol and 20% H2O (containing 0.1% formic acid). The CD spectra were obtained with a 1 mm quartz cuvette on a BRIGHT TIME Chirasca (Applied Photophysics, Britain) spectropolarimeter with a scan wavelength between 185–260 nm at 25 °C. The helicity of each peptide was calculated by the literature equation.^[ [24] ^]

T2 sequence (P22736 whole entry): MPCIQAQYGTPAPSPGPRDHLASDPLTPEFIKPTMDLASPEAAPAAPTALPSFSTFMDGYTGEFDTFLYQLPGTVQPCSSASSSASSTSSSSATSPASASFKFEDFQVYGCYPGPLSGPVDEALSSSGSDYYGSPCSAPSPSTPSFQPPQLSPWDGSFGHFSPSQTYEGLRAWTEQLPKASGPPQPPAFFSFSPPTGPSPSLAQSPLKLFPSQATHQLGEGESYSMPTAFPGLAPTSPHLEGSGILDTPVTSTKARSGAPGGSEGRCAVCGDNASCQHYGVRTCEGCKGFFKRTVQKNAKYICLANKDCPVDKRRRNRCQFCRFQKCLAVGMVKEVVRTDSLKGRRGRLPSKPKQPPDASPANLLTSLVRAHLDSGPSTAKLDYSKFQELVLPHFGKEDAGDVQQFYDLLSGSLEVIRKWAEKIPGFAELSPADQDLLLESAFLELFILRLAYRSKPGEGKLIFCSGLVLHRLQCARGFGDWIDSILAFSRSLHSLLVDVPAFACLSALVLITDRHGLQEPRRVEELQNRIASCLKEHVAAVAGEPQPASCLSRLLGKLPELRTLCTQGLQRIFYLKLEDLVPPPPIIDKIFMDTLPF
T1 sequence (P22736 351-598): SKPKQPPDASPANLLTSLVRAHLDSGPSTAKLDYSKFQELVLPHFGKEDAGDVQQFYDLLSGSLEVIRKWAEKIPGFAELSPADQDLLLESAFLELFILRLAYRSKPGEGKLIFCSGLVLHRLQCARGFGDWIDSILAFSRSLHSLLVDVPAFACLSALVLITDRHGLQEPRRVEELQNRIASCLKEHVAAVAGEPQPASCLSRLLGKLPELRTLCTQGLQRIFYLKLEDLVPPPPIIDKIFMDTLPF

C[C@@H](O)[C@@H]1NC(=O)[C@H](CCCNC(=N)N)NC(=O)[C@H](CCCNC(=N)N)NC(=O)[C@@](C)(NC(=O)[C@H](Cc2ccccc2)NC(=O)CNC(=O)[C@H](CCCCN)NC(=O)[C@H](CS)NC(=O)CNC(=O)[C@H](CCC(=O)O)NC(=O)[C@@H](N)CS)CCCC=CCCC[C@@](C)(C(=O)N[C@@H](CCCNC(=N)N)C(=O)N[C@@H](Cc2ccc(O)cc2)C(=O)N[C@@H](Cc2ccc(O)cc2)C(=O)NCC(=O)N[C@@H](CCCNC(=N)N)C(=O)N[C@@H](CCCCN)C(=O)N[C@@H](CCCCN)C(=O)N[C@@H](CCCNC(=N)N)C(=O)N[C@@H](CCCNC(=N)N)C(=O)N[C@@H](CCC(N)=O)C(=O)N[C@@H](CCCNC(=N)N)C(=O)N[C@@H](CCCNC(=N)N)C(=O)N[C@@H](CCCNC(=N)N)C(N)=O)NC1=O [ST-CY14] (H-CEGCKGF[S5]RRT[S5]RYYGRKKRRQRRR-NH2; staple 8-12)
CD36 and FABP4 protein expression (immunoblot) (MCF7 cells [1]): inhibited the protein expression of CD36 and FABP4
Nur77 protein expression (immunoblot) (MCF7 cells [1]): increase in Nur77 expression
solubility (Solubility test in PBS): > 20 mg/mL
Cell viability / proliferation (MDA-MB-231 cells [2]): significantly attenuated breast tumor cell proliferation
kon (Nur77-LBD): 1.6e+06 M⁻¹ s⁻¹
Scratch healing (MDA-MB-231 cells [3]): suppressed the scratch healing
CD36 and FABP4 transcription (qPCR) (MCF7 cells [4]): dose‐dependently inhibited CD36 and FABP4 expression at the transcriptional level
Cell viability / proliferation (MDA-BoM-1833 cells): significantly attenuated breast tumor cell proliferation
Endogenous Nur77-PPARγ binding (Co-IP) (Nur77-PPARγ interaction): inhibited the binding between Nur77 and PPARγ
Trim13 and ubiquitination of Nur77 (Co-IP) (Nur77-PPARγ interaction): obviously reduced the expression of Trim13 and attenuated the PPARγ‐induced ubiquitination of endogenous Nur77
α-Helicity (CD) [5]: 12.01%
